As usually defined, the IC50 is the concentration at which inhibition is half-maximal.

This assay deals with T1, IKBKB (IKKβ) (Homo sapiens, UniProt O14920).
T1 construct: purchased Life Technologies (assay performed by the vendor)
T1 sequence (O14920 1-756): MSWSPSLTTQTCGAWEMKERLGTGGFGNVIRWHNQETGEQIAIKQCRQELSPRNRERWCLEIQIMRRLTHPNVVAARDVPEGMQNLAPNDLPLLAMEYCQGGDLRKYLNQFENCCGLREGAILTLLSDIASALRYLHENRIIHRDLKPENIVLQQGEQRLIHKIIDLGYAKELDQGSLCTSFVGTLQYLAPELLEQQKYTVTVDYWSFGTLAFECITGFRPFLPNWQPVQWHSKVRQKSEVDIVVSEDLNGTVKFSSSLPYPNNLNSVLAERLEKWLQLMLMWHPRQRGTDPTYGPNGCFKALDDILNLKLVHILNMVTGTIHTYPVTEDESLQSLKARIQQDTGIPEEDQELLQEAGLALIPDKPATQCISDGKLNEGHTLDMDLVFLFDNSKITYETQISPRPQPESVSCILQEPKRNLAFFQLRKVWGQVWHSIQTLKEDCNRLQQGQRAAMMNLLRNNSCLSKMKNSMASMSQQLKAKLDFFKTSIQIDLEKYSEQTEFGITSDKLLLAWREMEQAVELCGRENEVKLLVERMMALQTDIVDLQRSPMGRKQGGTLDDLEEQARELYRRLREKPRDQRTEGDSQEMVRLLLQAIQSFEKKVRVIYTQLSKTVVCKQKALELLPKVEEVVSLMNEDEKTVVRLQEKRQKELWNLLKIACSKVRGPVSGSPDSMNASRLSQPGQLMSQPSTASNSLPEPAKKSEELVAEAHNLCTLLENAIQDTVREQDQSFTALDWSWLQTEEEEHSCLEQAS
In words: Z'-LYTE IKKβ assay (Life Technologies). The format is biochemical. How it is done: IKKα and IKKβ inhibitory activity was determined using three different assays: a dissociation enhanced ligand fluorescent immunoassay (DELFIA) based on the protocol of HTScan™ IKKβ Kinase Assay (Cell Signaling Technology, USA); an Adapta IKKα assay (performed by Life Technologies); a Z′-LYTE™ IKKβ assay (performed by Life Technologies).
The reaction was performed in low volume NBS, black 384-well plates (Corning model 4514).
The test compounds were screened in 1% DMSO (final) in the well. For 10 point titrations, 3-fold serial dilutions were conducted from the starting concentration of 50 mM.
The 2× IKBKB (IKKβ)/Ser/Thr 05 mixture was prepared in 50 mM HEPES pH 7.5, 0.01% BRIJ-35, 10 mM MgCl2, 1 mM EGTA. The final 10 μL Kinase Reaction consisted of 0.62-4 ng IKBKB (IKKβ) and 2 μM Ser/Thr 05 in 50 mM HEPES pH 7.5, 0.01% BRIJ-35, 10 mM MgCl2, 1 mM EGTA.
5 μL of 2× Kinase reaction was incubated with 2.5 μL of ATP solution diluted to a 4× working concentration in Kinase Buffer (50 mM HEPES pH 7.5, 0.01% BRIJ-35, 10 mM MgCl2, 1 mM EGTA) in the presence of […] of 100× test compound in 100% DMSO and 2.4 μL of Kinase buffer.
The resulting kinase reaction was allowed to incubate for 1 hour at room temperature before 5 μL of a 1:64 dilution of Development Reagent B was added and the resulting Development Reaction was incubated for another hour at room temperature. Then the plate was read on a fluorescence plate reader and the data analysed.
A ratiometric method, which calculated the Emission Ratio of donor emission (i.e. coumarin) to acceptor emission (i.e. fluorescein) after excitation of the donor fluorophore at 400 nm, was used to quantitate reaction progress, as shown in the equation below.
Molecule `CC(C)(C)OCc1cc2c(-c3ccc4[nH]nc(N)c4c3)ccnc2[nH]1` [Example 227, 5-(2-(tert-Butoxymethyl)-1H-pyrrolo[2,3-b]pyridin-4-yl)-1H-indazol-3-amine] gave an IC50 of 0.388 µM.

In the case of `Nc1n[nH]c2ccc(-c3ccnc4[nH]c(C5CCOCC5)cc34)cc12` [Example 228, 5-(2-(tetrahydro-2H-pyran-4-yl)-1H-pyrrolo[2,3-b]pyridin-4-yl)-1H-indazol-3-amine], the IC50 came out at 0.032 µM.

In the case of `Nc1n[nH]c2ccc(-c3ccnc4[nH]c(C5CCCCO5)cc34)cc12` (centres unmarked) [Example 229, 5-(2-(Tetrahydro-2H-pyran-2-yl)-1H-pyrrolo[2,3-b]pyridin-4-yl)-1H-indazol-3-amine], half-maximal inhibition (IC50) required 0.225 µM.

In the case of `Nc1n[nH]c2ccc(-c3ccnc4[nH]c(CC5CCOCC5)cc34)cc12` [Example 230, 5-(2-((tetrahydro-2H-pyran-4-yl)methyl)-1H-pyrrolo[2,3-b]pyridin-4-yl)-1H-indazol-3-amine], the 50% inhibitory concentration (IC50) came out at 0.06 µM.

As for `Nc1n[nH]c2ccc(-c3ccnc4[nH]c(C(=O)N5CCCC5)cc34)cc12` [Example 234, (4-(3-Amino-1H-indazol-5-yl)-1H-pyrrolo[2,3-b]pyridin-2-yl)(pyrrolidin-1-yl)methanone], inhibition was half-maximal at 0.79 µM (IC50).

For `Nc1n[nH]c2ccc(-c3ccnc4[nH]c(C(=O)NC5CCCCC5)cc34)cc12` [Example 236, 4-(3-Amino-1H-indazol-5-yl)-N-cyclohexyl-1H-pyrrolo[2,3-b]pyridine-2-carboxamide], the IC50 amounted to 0.02 µM.

Molecule `CN1CCN(C(=O)c2cc3c(-c4ccc5[nH]nc(N)c5c4)ccnc3[nH]2)CC1` [Example 243, (4-(3-Amino-1H-indazol-5-yl)-1H-pyrrolo[2,3-b]pyridin-2-yl)(4-methylpiperazin-1-yl)methanone] displayed an IC50 of 0.63 µM.

On to `CC(C)(C)NCc1cc2c(-c3ccc4[nH]nc(N)c4c3)ccnc2[nH]1` [Example 248, 5-(2-((tert-Butylamino)methyl)-1H-pyrrolo[2,3-b]pyridine-4-yl)-1H-indazol-3-amine], for which the half-inhibitory concentration (IC50) was 1.43 µM.

In turn, `Nc1n[nH]c2ccc(-c3ccnc4[nH]c(C5CCCCN5)cc34)cc12` (centres unmarked) [Example 250, 5-(2-(Piperidin-2-yl)-1H-pyrrolo[2,3-b]pyridine-4-yl)-1H-indazol-3-amine] registered an IC50 of 0.81 µM.

`Nc1n[nH]c2ccc(-c3ccnc4[nH]c(CNC5CCCCC5)cc34)cc12` [Example 251, 5-(2-((cyclohexylamino)methyl)-1H-pyrrolo[2,3-b]339yridine-4-yl)-1H-indazol-3-amine] showed an IC50 of 0.405 µM.

As to `CN(C)CCCNCc1cc2c(-c3ccc4[nH]nc(N)c4c3)ccnc2[nH]1` [Example 258, N^1-((4-(3-amino-1H-indazol-5-yl)-1H-pyrrolo[2,3-b]pyridin-2-yl)methyl)-N^3,N^3-dimethylpropane-1,3-diamine], 0.245 µM corresponded to half-maximal inhibition (IC50).

The molecule `CC(C)N(C)Cc1cc2c(-c3ccc4[nH]nc(N)c4c3)ccnc2[nH]1` [Example 259, 5-(2-((Isopropyl(methyl)amino)methyl)-1H-pyrrolo[2,3-b]pyridine-4-yl)-1H-indazol-3-amine] returned an IC50 of 0.79 µM.

Consider `Nc1n[nH]c2ccc(-c3ccnc4[nH]c(CN5CCCCC5)cc34)cc12` [Example 260, 5-(2-(Piperidin-1-ylmethyl)-1H-pyrrolo[2,3-b]pyridine-4-yl)-1H-indazol-3-amine], for which the midpoint of inhibition, the IC50, lay at 0.454 µM.

`Nc1n[nH]c2ccc(-c3ccnc4[nH]c(CN5CCC(F)(F)CC5)cc34)cc12` [Example 261, 5-(2-((4,4-Difluoropiperidin-1-yl)methyl)-1H-pyrrolo[2,3-b]pyridine-4-yl)-1H-indazol-3-amine] displayed an IC50 of 0.286 µM.

The molecule `Nc1n[nH]c2ccc(-c3ccnc4[nH]c(CN5CCOCC5)cc34)cc12` [Example 262, 5-(2-(Morpholinomethyl)-1H-pyrrolo[2,3-b]pyridine-4-yl)-1H-indazol-3-amine] displayed an IC50 of 0.269 µM.

For the molecule `CN1CCN(Cc2cc3c(-c4ccc5[nH]nc(N)c5c4)ccnc3[nH]2)CC1` [Example 263, 5-(2-((4-Methylpiperazin-1-yl)methyl)-1H-pyrrolo[2,3-b]pyridine-4-yl)-1H-indazol-3-amine], half-maximal inhibition (IC50) required 0.3 µM.

`Nc1n[nH]c2ccc(-c3ccnc4[nH]c(CN5CCCCCC5)cc34)cc12` [Example 265, 5-(2-(Azepan-1-ylmethyl)-1H-pyrrolo[2,3-b]pyridine-4-yl)-1H-indazol-3-amine] returned an IC50 of 0.35 µM.

In turn, `CN1CCCN(Cc2cc3c(-c4ccc5[nH]nc(N)c5c4)ccnc3[nH]2)CC1` [Example 266, 5-(2-((4-Methyl-1,4-diazepan-1-yl)methyl)-1H-pyrrolo[2,3-b]pyridin-4-yl)-1H-indazol-3-amine] yielded an IC50 of 0.38 µM.

`Nc1n[nH]c2ccc(-c3ccnc4[nH]c(CCN5CCCCC5)cc34)cc12` [Example 267, 5-(2-(2-(Piperidin-1-yl)ethyl)-1H-pyrrolo[2,3-b]pyridine-4-yl)-1H-indazol-3-amine]: the IC50 came out at 0.235 µM.

`Nc1n[nH]c2ccc(-c3ccnc4[nH]c(CCN5CCOCC5)cc34)cc12` [Example 268, 5-(2-(2-Morpholinoethyl)-1H-pyrrolo[2,3-b]pyridin-4-yl)-1H-indazol-3-amine] had an IC50 of 0.138 µM.

`Nc1n[nH]c2ccc(-c3ccnc4[nH]c(CCCN5CCCCC5)cc34)cc12` [Example 269, 5-(2-(3-(Piperidin-1-yl)propyl)-1H-pyrrolo[2,3-b]pyridin-4-yl)-1H-indazol-3-amine] registered a half-inhibitory concentration (IC50) of 0.046 µM.

On to `Nc1n[nH]c2ccc(-c3ccnc4[nH]c(CCCN5CCOCC5)cc34)cc12` [Example 271, 5-(2-(3-Morpholinopropyl)-1H-pyrrolo[2,3-b]pyridin-4-yl)-1H-indazlo-3-amine], for which the IC50 was found to be 0.111 µM.

The molecule `Nc1n[nH]c2ccc(-c3ccnc4[nH]c(CC5CCNCC5)cc34)cc12` [Example 272, 5-(2-(Piperidin-4-ylmethyl)-1H-pyrrolo[2,3-b]pyridin-4-yl)-1H-indazol-3-amine] had an IC50 of 0.053 µM.
